For experiment [1], the system named is Human Multiple Myeloma NCI-H929 cells. The experiment in a line: M-Protein concentration in sera (ELISA) on day 42 of the orthotopic osteolysis model. It counts as in vivo, SCID mice. To be noted: sera at termination (day 42), versus mice that received solvent diluent only, FIG. 3.
The test system is the same in experiment [2]. Briefly: Orthotopic osteolysis model, microCT analysis of tibia (bone lysis). The format is in vivo, SCID mice. The settings on record: for Total Bone Lysis: microCT, day 42, vehicle control = 100.0, Melphalan 4 mg/kg i.v., MOR03087 3 mg/kg i.p., 3x weekly for 6 weeks, data of FIG. 1.

The record followed here is patent US9579378B2, “Combinations and uses thereof” (MORPHOSYS AG, priority 2012, dated 2017).

For `N[C@@H](Cc1ccc(N(CCCl)CCCl)cc1)C(=O)O` [Melphalan], in experiment [1], the “Protein M concentration in sera” value is “significantly reduced”. For the same molecule, the “Bone lysis (microCT, FIG. 2)” value in experiment [2] (Melphalan 8 mg/kg alone, i.v. 3x weekly for 6 weeks, day 42) is given as “reduced bone lysis completely”. Further, in experiment [2], the “Total Bone Lysis” value is recorded as 61.3%.

B1: MOR03087: anti-CD38 antibody whose amino acid sequence and DNA sequence is provided in FIG. 4; disclosed in U.S. Pat. No. 8,088,896 (antibody, listed as Homo sapiens, V domains shown)
VH: QVQLVESGGGLVQPGGSLRLSCAASGFTFSSYYMNWVRQAPGKGLEWVSGISGDPSNTYYADSVKGRFTISRDNSKNTLYLQMNSLRAEDTAVYYCARDLPLVYTGFAYWGQGTLVTVSS
VL: DIELTQPPSVSVAPGQTARISCSGDNLRHYYVYWYQQKPGQAPVLVIYGDSKRPSGIPERFSGSNSGNTATLTISGTQAEDEADYYCQTYTGGASLVFGGGTKLTVLGQ
modifications: MOR202 Variable Heavy Domain; MOR202 Variable Light Domain
On to B1, for which the “Protein M concentration in sera” value in experiment [1] was “significantly reduced”. Moreover, the “Total Bone Lysis” value in experiment [2] amounted to 27.6%.
